Among the data in patent publication US20050171171A1, “Amide derivatives as FLT-3 modulators” (Ambit Biosciences Corporation, priority 2003, published 2005) are Kd and IC50 values, retold here.

The term Kd denotes a measure of binding affinity in units of concentration. As a reminder, the IC50 is the concentration at which inhibition is half-maximal. Low readings indicate greater potency in that assay, high ones weaker potency in that assay.

One experiment has as its target T1, FLT3(DKIN) (Homo sapiens, UniProt P36888).
T1 construct: 3(DKIN); made in house
T1 sequence (P36888 610-943 limits assumed): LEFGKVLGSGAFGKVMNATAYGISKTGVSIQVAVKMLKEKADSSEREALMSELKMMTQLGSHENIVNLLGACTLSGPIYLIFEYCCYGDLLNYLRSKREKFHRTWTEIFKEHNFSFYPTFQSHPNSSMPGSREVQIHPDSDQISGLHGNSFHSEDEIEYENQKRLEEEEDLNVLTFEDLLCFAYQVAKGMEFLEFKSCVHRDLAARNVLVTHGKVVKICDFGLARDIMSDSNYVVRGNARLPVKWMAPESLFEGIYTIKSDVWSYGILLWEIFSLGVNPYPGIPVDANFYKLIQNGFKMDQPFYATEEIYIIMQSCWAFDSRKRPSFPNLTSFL
Put plainly: Binding Assay: FLT3(DKIN), phage-displayed kinase competition binding (Kd). An excerpt: (§1) Binding Constant (Kd) Measurements for Small-Molecule-Kinase Interactions
(§2) The term “ND” represents non-determined values.

For a further experiment, the system named is MV4,11 cells. The experiment is described as follows: Cell Assay: CS0001, FLT3 assay using MV4,11 cells (MTS proliferation). The format is cell-based. The settings on record: Homo sapiens. As to the method:
The ability of FLT3 kinase inhibitors to inhibit cellular proliferation was also examined. MV4:11 was a cell line derived from a patient with acute myelogenous leukemia. It expressed a mutant FLT3 protein that was constitutively active. […] Inhibition of FLT3 kinase activity prevented proliferation of these cells, and thus the MV4:11 cell line can be used a model for cellular activity of small molecule inhibitors of FLT3.
FLT3 Assay Using MV4,11 Cells
MV4,11 cells were grown in an incubator @ 37° C. in 5% CO2 in Medium 2 (RPM 10% FBS, 4 mM glutamine, Penn/Strep). The cells were counted daily and the cell density was kept between 1e5 and 8e5 cells/ml.
Day One: Enough cells were harvested for experiments to be conducted in 50 ml conical tubes. The harvested cells were spun at 500 g for 5 min at 4° C., the supernatant was then aspirated and the cells were resuspended in the starting volume of 1× PBS. The cells were again spun at 500 g for 5 min at 4° C. and the supernatant again aspirated. The cells were then resuspended in medium 3 (DMEM w/glut, 10% FBS, Penn/Strep) to a density of 4e5 cells/ml and incubated @ 37° C. in 5% CO2 O/N.
Day Two: The cells were counted and enough medium 3 was added to decrease density to 2e5 cells/ml. 50 ul (10,000 cells) was aliquoted into each well of a 96 well optical plate using multichannel pipetman. The compound plate was then set up by aliquoting 3 μl of negative control (DMSO) into column 1 of a 96 well 300 ul polypropylene plate, aliquoting 3 μl of positive control (10 mM AB20121) into column 12 of plate, and aliquoting 3 μl of appropriate compounds from serial dilutions into columns 2-11. To each well, 150 μl of Medium 3 was added and 50 μl of compound/medium mixture from compound plate into rows of optical plate in duplicate. The cells were then incubated @ 37° C. in 5% CO2 for 3 days.
Day Five: MTS was thawed in a H2O bath. 20 μl of MTS was added to each well of optical plate and the cells were incubated @ 37° C. in 5% CO2 for 2 hours. The plate was then placed on a plate shaker for 30 seconds on high speed.

The next experiment in a line: Cell Assay: CS0002. The class given is cell-based.
In the next experiment the target is T2, FLT3(JMminus) (Homo sapiens, UniProt P36888).
T2 construct: "FLT 3(JMminus)"; fused on or other part: Fused to a T7 bacteriophage particle (phage display)
T2 sequence (P36888 610-943 limits assumed): T1 sequence (P36888 610-943 limits assumed)
The experiment is described as follows: Binding Assay: FLT3(JMminus), phage-displayed kinase competition binding (Kd).
Source text: as §1, §2

Each structure is given as a SMILES string.

On FLT3(DKIN), `CC(C)(C)c1cc(C(=O)Nc2ccc(OCC3CC3)cc2)no1` returned a Kd greater than 10000 nM. In addition, in the experiment with MV4,11 cells, the IC50 fell in the range of 1000 to 10000 nM.

On FLT3(DKIN), `CC(C)(C)c1cc(-c2nc(-c3ccc(OCc4ccccc4F)cc3)no2)no1` showed a Kd greater than 10000 nM. This compound displayed a concentration for half-maximal inhibition (IC50) in the experiment with MV4,11 cells of 100 to 1000 nM.

Take `CC(C)(C)c1cc(NC(=O)Sc2ccc(Cl)cc2)no1`: the Kd on FLT3(DKIN) was 1000 to 10000 nM.

Consider `O=C(Cc1ccc(OCc2ccccc2)cc1)Nc1nc(-c2ccc(Cl)cc2)cs1`, for which the Kd on FLT3(DKIN) is greater than 10000 nM.

Consider `CC(C)(C)c1cc(-c2nc(-c3ccc(Cl)cc3)no2)no1`, for which the Kd at FLT3(DKIN) was greater than 10000 nM. In the experiment with MV4,11 cells, this compound displayed an IC50 greater than 10000 nM.

`Cc1cnc(NC(=O)Cc2ccc(OCc3ccccc3)cc2)s1` returned a Kd on FLT3(DKIN) greater than 10000 nM.

For the compound `COc1ccc(CC(=O)Nc2cc(C(C)(C)C)no2)cc1`, the Kd at FLT3(DKIN) was less than 100 nM.

For the compound `Cc1ccc(NC(=O)c2ccc(-c3noc(-c4cc(C(C)(C)C)on4)n3)cc2)cc1`, the Kd at FLT3(DKIN) was greater than 10000 nM. Moreover, in the experiment on MV4,11 cells, the IC50 lay within 100 to 1000 nM.

For `CC(C)(C)c1cc(/C=N/C(=N\O)c2ccc(Cl)cc2)no1`, the Kd on FLT3(DKIN) lay in the range of 1000 to 10000 nM. The same compound yielded an IC50 in the experiment with MV4,11 cells of 1000 to 10000 nM.

In turn, `O=C(Cc1ccc(OCc2ccccc2)cc1)Nc1nc2cc(Cl)ccc2o1` returned a Kd at FLT3(DKIN) of 100 to 1000 nM.

On to `O=C(Cc1ccc(OCc2ccccc2)cc1)Nc1nc2ccccc2s1`, for which the Kd at FLT3(DKIN) was greater than 10000 nM.

Consider `COc1ccc(SC(=O)Nc2cc(C(C)(C)C)on2)cc1`, for which the Kd at FLT3(DKIN) lay within 1000 to 10000 nM.

As to `Cc1noc(-c2ccc(-c3noc(-c4cc(C(C)(C)C)on4)n3)cc2)n1`, the Kd on FLT3(DKIN) is greater than 10000 nM. For the same compound, the IC50 with MV4,11 cells is greater than 10000 nM.

`CC(C)(C)c1cc(NC(=O)Cc2ccc(Br)cc2)on1` returned a Kd on FLT3(DKIN) of less than 100 nM.

`Cc1csc(NC(=O)Cc2ccc(OCc3ccccc3)cc2)n1`: the Kd at FLT3(DKIN) was greater than 10000 nM.

As for `Cc1nn(C)c(Cl)c1C(=O)Nc1ccc(CC(=O)Nc2cc(C(C)(C)C)on2)cc1`, the IC50 in “Cell Assay: CS0002” is greater than 10000 nM; with MV4,11 cells, 100 to 1000 nM. Besides, the Kd on FLT3(JMminus) is less than 100 nM.

As for `CC(C)(C)c1cc(NC(=O)Cc2ccc(Cl)cc2)on1`, the Kd on FLT3(DKIN) is less than 100 nM.

The compound `CC(C)(C)c1cc(C(=O)Nc2ccc(OCc3ccccc3F)cc2)no1` returned an equilibrium dissociation constant (Kd) at FLT3(DKIN) of 1000 to 10000 nM. In the experiment with MV4,11 cells, the IC50 is 1000 to 10000 nM.

As for `O=C(Cc1ccc(OCc2ccccc2)cc1)Nc1nc2ccc(F)cc2s1`, the Kd on FLT3(DKIN) is greater than 10000 nM.

Consider `CC(C)(C)c1cc(-c2nc(-c3ccc(O)cc3)no2)no1`, for which the Kd at FLT3(DKIN) is greater than 10000 nM. In the experiment with MV4,11 cells, this compound gave an IC50 of 1000 to 10000 nM.

With `CC(C)(C)c1cc(NC(=O)Cc2ccc(OCc3ccccc3)cc2)on1`, the Kd at FLT3(DKIN) was less than 100 nM. Moreover, the IC50 in the experiment on MV4,11 cells was less than 100 nM.

`CC(C)(C)c1cc(NC(=O)Cc2ccc(NC(=O)c3cnc4ccccc4c3)cc2)no1`: the IC50 was greater than 10000 nM in “Cell Assay: CS0002” and less than 100 nM with MV4,11 cells. At FLT3(JMminus), this compound gave a Kd of less than 100 nM.

With `CC(C)(C)c1cc(NC(=O)Cc2ccc(F)cc2)on1`, the Kd on FLT3(DKIN) is less than 100 nM.

`CC(C)(C)c1cc(NC(=O)Cc2ccc(O)cc2)no1`: the Kd at FLT3(DKIN) lay in the range of 100 to 1000 nM.

On to `CC(C)(C)c1cc(NC(=O)Cc2ccc(NC(=O)c3ccc4cnccc4n3)cc2)no1`, for which the figures for the IC50 in “Cell Assay: CS0002” and with MV4,11 cells were greater than 10000 nM and less than 100 nM, respectively. At FLT3(JMminus), this compound returned a Kd of less than 100 nM.

Consider `COc1cccc2sc(NC(=O)Cc3ccc(OCc4ccccc4)cc3)nc12`, for which, on FLT3(DKIN), the Kd was greater than 10000 nM.

Regarding `COc1ccc(CC(=O)Nc2cc(C3CC3)nn2-c2ccccc2)cc1`, the Kd at FLT3(DKIN) was in the range of 1000 to 10000 nM.

With `CSc1ncc(Br)c(C(=O)Nc2ccc(CC(=O)Nc3cc(C(C)(C)C)on3)cc2)n1`, the IC50 in the experiment “Cell Assay: CS0002” is greater than 10000 nM; in the experiment with MV4,11 cells it was less than 100 nM. The compound further registered a Kd at FLT3(JMminus) of less than 100 nM.

`Cc1cc(C)n(C(=O)Nc2ccc(Cl)cc2)n1`: the Kd on FLT3(DKIN) is greater than 10000 nM. In addition, in the experiment on MV4,11 cells, the IC50 was greater than 10000 nM.

For the compound `O=C(Cc1ccc(OCc2ccccc2)cc1)Nc1cc(C2CC2)nn1-c1ccccc1`, the Kd at FLT3(DKIN) was in the range of 100 to 1000 nM.

Consider `Cn1cc(C(=O)Nc2ccc(CC(=O)Nc3cc(C(C)(C)C)on3)cc2)c2ccccc21`, for which the values for the IC50 in “Cell Assay: CS0002” and in the experiment on MV4,11 cells were greater than 10000 nM and less than 100 nM, respectively. The compound also yielded a Kd at FLT3(JMminus) of less than 100 nM.

On to `CC(C)(C)c1cc(NC(=O)Cc2ccc(NC(=O)c3cccc4cccnc34)cc2)no1`, for which the IC50 in “Cell Assay: CS0002” is greater than 10000 nM; in the experiment with MV4,11 cells it was 1000 to 10000 nM. Further, at FLT3(JMminus), the Kd was 100 to 1000 nM.
